Values after ≈ are worked out from the molar mass of the structure shown.

Settings in one series: not given
A word on the solubility: it is how much of the substance goes into solution per volume. Higher therefore signals much dissolved substance. Turning to `Cn1cnc2nc(Cl)nc(Cl)c21`, the solubility turned out to be 70.4 mM (≈ 14300 µg/mL).
As for `C[C@@H](O)CCCC=O`, the solubility worked out at 344 mM (≈ 40000 µg/mL). Compared with the last molecule, the solubility is about 4.9-fold higher.
`CCSS(=O)CC` (stereo not drawn) yielded a solubility of 796 mM (≈ 110000 µg/mL).
In turn, `CCOC(=O)C(CC(=O)O)=C(c1ccccc1)c1ccccc1` came in with a solubility of 6.44 mM (≈ 2000 µg/mL).
On the same count and under the same terms, the result for `CCN(CC)C(=O)N(CC)CC` reads 232 mM (≈ 40000 µg/mL); that for `C[C@H](NC(=O)c1ccccc1)C(=O)O` (racemic), 20.7 mM (≈ 4000 µg/mL).
The molecule `NC(=S)SCC(=O)O` returned a solubility of 179 mM (≈ 27000 µg/mL).
In turn, `CCCOCC(O)COCCC` displayed a solubility of 454 mM (≈ 80000 µg/mL).
Still for that read-out and setting: the result for `CCC1(CC(C)=O)C(=O)NC(=O)NC1=O` reads 171 mM (≈ 36400 µg/mL).
The same measure, in the same setting: the same measure for `Cn1c(=O)[nH]n(-c2ccccc2)c1=O`: 1.05 mM (≈ 200 µg/mL).
On the same count and under the same terms, the result for `COc1ccc(OC)c([N+](=O)[O-])c1` reads 0.764 mM (≈ 140 µg/mL); that for `O=C(c1ccc(Cl)cc1Cl)N(O)c1ccccc1`, 0.213 mM (≈ 60 µg/mL).
As to `CC(C)CC(c1ccc(O)cc1)c1ccc(O)cc1`, the solubility was found to be 0.429 mM (≈ 110 µg/mL).
Regarding `O=C(OCCCO)c1ccccc1`, the solubility amounted to 55.5 mM (≈ 10000 µg/mL). This solubility is about 130-fold higher than that of the molecule before.
Consider `CC(C)CC1OCCO1`, for which the solubility was 427 mM (≈ 55600 µg/mL).
`O=[N+]([O-])CCl` displayed a solubility of 524 mM (≈ 50000 µg/mL).
Same read-out and setting: the result for `O=C(O)C(Cl)(Cl)CCCl` reads 261 mM (≈ 50000 µg/mL); that for `O=C(c1cc([N+](=O)[O-])cc([N+](=O)[O-])c1)N(O)c1ccccc1`, 0.231 mM (≈ 70 µg/mL); that for `O=C(O)/C=C/CBr`, 182 mM (≈ 30000 µg/mL).
Still for that read-out and setting: the result for `C=CCOC(CO)CO` reads 3030 mM (≈ 400000 µg/mL); that for `CC(C)C=CCC(=O)O`, 71 mM (≈ 9100 µg/mL); that for `NNC(=O)c1nccs1`, 210 mM (≈ 30000 µg/mL).
Still for that read-out and setting: the result for `O=c1cc(Br)c2ccccc2o1` reads 22.2 mM (≈ 5000 µg/mL); that for `CC(C)(NC(=O)c1ccccc1)C(N)=O`, 24.2 mM (≈ 5000 µg/mL); that for `CC(=O)OCCCOC(C)=O`, 624 mM (≈ 100000 µg/mL).
With `CNCCC(=O)O`, the solubility came out at 882 mM (≈ 91000 µg/mL).
The molecule `Cc1nn(-c2ccccc2)c(N)c1C` displayed a solubility of 21.4 mM (≈ 4000 µg/mL).
The same measure, in the same setting: the same measure for `CC1NC(=O)CNC1=O` (stereo not drawn): 1950 mM (≈ 250000 µg/mL); for `NCCCNc1ccccc1`: 22.2 mM (≈ 3330 µg/mL); for `CC(C)OC(=O)C(C)(C)O`: 1030 mM (≈ 150000 µg/mL).
Same read-out and setting: the same measure for `CCOC(=O)[C@H](C)NC(=O)CCl`: 345 mM (≈ 66700 µg/mL); for `CC1(O)CCC(C)(O)CC1` (stereo not drawn): 243 mM (≈ 35000 µg/mL).
Still for that read-out and setting: the result for `CCCC(Br)(CCC)C(N)=O` reads 14.9 mM (≈ 3300 µg/mL).

Still in this series, the particulars now being: 20 °C.
In the case of `CCCc1ncnc2c(O)cccc12`, the solubility worked out at 1.2 mM (≈ 226 µg/mL).
On the same count and under the same terms, the same measure for `O=C(Nc1ccccc1)C(Cl)Cl`: 0.441 mM (≈ 90 µg/mL).
Same read-out and setting: the same measure for `CCOc1ccc(NC(C)=O)c2cccnc12`: 30.4 mM (≈ 7000 µg/mL); for `CC(C)COC(=O)c1c(C(=O)O)cccc1[N+](=O)[O-]`: 0.898 mM (≈ 240 µg/mL); for `O=S(CCCl)CCCl`: 68.5 mM (≈ 12000 µg/mL).
With `CC(C)(C)S(=O)(=O)C(C)(C)C`, the solubility is 60.6 mM (≈ 10800 µg/mL).
In the case of `CCc1nc2ncnc(O)c2nc1CC`, the solubility was 12.2 mM (≈ 2500 µg/mL).
Still for that read-out and setting: the same measure for `CCC(=O)OCc1ccc(Cl)cc1Cl`: 0.858 mM (≈ 200 µg/mL); for `Cc1nc2cncnc2n(C)c1=O`: 32.4 mM (≈ 5710 µg/mL).
Same read-out and setting: the result for `O=C(O)c1cc(Cl)ccc1O` reads 57.9 mM (≈ 10000 µg/mL).
With `Cc1cc(C)nc(C(N)=O)n1`, the solubility is 1320 mM (≈ 200000 µg/mL).
The same measure, in the same setting: the result for `O=C(O)C(Cl)=C(Br)Br` reads 205 mM (≈ 54300 µg/mL); that for `CC(=O)NCC(=O)Nc1ccccc1`, 27.1 mM (≈ 5200 µg/mL).
On the same count and under the same terms, the same measure for `O=C(O)C=C(CC(=O)O)C(=O)O`: 2450 mM (≈ 427000 µg/mL).
In the case of `CCOC(=O)c1[nH]c(C)cc1C`, the solubility worked out at 2.39 mM (≈ 400 µg/mL). Against the preceding molecule, the solubility is about 1000-fold lower.
Still for that read-out and setting: the result for `CC(C)(C(=O)O)C(C)(CC(=O)O)C(=O)O` (stereo not drawn) reads 774 mM (≈ 169000 µg/mL).
In the case of `CC1NC(C)SC(C)S1` (stereo not drawn), the solubility is 42.9 mM (≈ 7000 µg/mL).
On the same count and under the same terms, the same measure for `O=C1C=CC(=NO)C=C1`: 28.4 mM (≈ 3500 µg/mL); for `Cc1cc(C)cc(OCC(=O)O)c1`: 4.44 mM (≈ 800 µg/mL).
The same measure, in the same setting: the same measure for `CC1(C)C2CCC1(C)C(N)(C(=O)O)C2` (stereo not drawn): 25.3 mM (≈ 5000 µg/mL); for `Cc1nc2c(=O)[nH]c(=O)n(C)c2nc1C`: 7.71 mM (≈ 1590 µg/mL).
Molecule `CC(=O)/C(=N/O)c1ccccc1` returned a solubility of 4.29 mM (≈ 700 µg/mL).
Regarding `c1ccc2c3c(ccc2c1)Sc1ccc2ccccc2c1N3`, the solubility was found to be 1.24e-05 mM (≈ 0.0037 µg/mL).
Still for that read-out and setting: the same measure for `Clc1ncc2nccnc2n1`: 200 mM (≈ 33300 µg/mL); for `CCCCOC(=O)c1c(C(=O)O)cccc1[N+](=O)[O-]`: 1.91 mM (≈ 510 µg/mL).
As for `NC(N)=N/C(N)=N/c1cccc2ccccc12`, the solubility came out at 4.84 mM (≈ 1100 µg/mL). Compared with the last molecule, the solubility is about 2.5-fold higher.
The same measure, in the same setting: the result for `CC(C)COC(=O)c1ccc(N)cc1` reads 1.14 mM (≈ 220 µg/mL); that for `CCC(O)C(Cl)(Cl)Cl` (stereo not drawn), 113 mM (≈ 20000 µg/mL).
The molecule `CCCC(O)(CCC)C(O)c1ccccc1` (stereo not drawn) gave a solubility of 2.25 mM (≈ 500 µg/mL).
For the molecule `O=CC(O)C(O)C(O)[C@H](O)C(O)CO` (stereo in doubt), the solubility was determined as 476 mM (≈ 100000 µg/mL). Against the preceding molecule, the solubility is about 210-fold higher.
The same measure, in the same setting: the result for `CC=C(CCCC)C(=O)NC(N)=O` reads 1.63 mM (≈ 300 µg/mL); that for `CN1C(=O)COc2ccccc21`, 7.17 mM (≈ 1170 µg/mL).

Staying with this series, now noted: 21 °C.
The molecule `CC(=O)N[C@@H](Cc1c[nH]c2ccccc12)C(=O)O` (racemic) returned a solubility of 4.87 mM (≈ 1200 µg/mL).
For `O=C(O)CNC(=O)c1ccco1`, the solubility was 187 mM (≈ 31700 µg/mL).
Same read-out and setting: the same measure for `Cc1cc(O)c(C(=O)O)cc1Cl`: 0.75 mM (≈ 140 µg/mL).

(Values after the OPERA property sets (Mansouri et al. 2018).)
